Here are results for 10 molecules from PMC5971309, “Identification of Estrogen Receptor α Antagonists from Natural Products via In Vitro and In Silico Approaches” (Oxidative Medicine and Cellular Longevity, 2018).

The target in assay [1] is T1, ERα (Homo sapiens, UniProt P03372).
T1 construct: purchased Life Technologies
T1 sequence (P03372 1-595): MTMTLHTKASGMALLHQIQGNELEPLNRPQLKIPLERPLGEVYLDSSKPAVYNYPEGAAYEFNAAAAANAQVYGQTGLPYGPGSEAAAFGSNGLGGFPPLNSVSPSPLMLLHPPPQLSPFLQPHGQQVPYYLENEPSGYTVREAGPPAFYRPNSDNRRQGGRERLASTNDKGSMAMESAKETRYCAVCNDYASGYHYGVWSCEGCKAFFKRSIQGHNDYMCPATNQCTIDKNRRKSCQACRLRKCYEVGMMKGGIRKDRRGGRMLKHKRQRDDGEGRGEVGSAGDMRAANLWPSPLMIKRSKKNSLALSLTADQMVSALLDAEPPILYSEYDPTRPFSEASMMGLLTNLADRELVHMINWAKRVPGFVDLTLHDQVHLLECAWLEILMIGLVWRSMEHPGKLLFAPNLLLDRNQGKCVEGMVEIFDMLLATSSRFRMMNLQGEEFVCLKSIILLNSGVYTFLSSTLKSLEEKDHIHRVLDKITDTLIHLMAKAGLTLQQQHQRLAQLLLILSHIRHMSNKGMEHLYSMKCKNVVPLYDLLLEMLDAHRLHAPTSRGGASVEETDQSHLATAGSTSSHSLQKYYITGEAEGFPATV
As to the kind of experiment: green PolarScreen ERα Competitor Assay (fluorescence polarization). The class given is binding. As to the method:
The ERα binding affinities of representative compounds predicted as ERα antagonists were measured by fluorescence polarization procedure using green PolarScreen™ ERα Competitor Assay kit (Life Technologies, CA, United States of America). Briefly, 75 nM ERα together with 4.5 nM fluormone was mixed with a series of concentrations of the test compounds in the assay buffer. Then, they were incubated for 2 h in room temperature in black low volume 384-well assay plate with NBS surface (Corning, NY, United States of America) for fluorescence polarization assay. Subsequently, the detection wavelength was set at excitation wavelength 485 nm and emission wavelength 535 nm with bandwidths of 25/20 nm in EnVision Workstation version 1.7 (PerkinElmer, MA, United States of America). 2104 EnVision® Multilabel Plate Reader was performed for the measurements.

For assay [2], the system named is ERα. As to the kind of experiment: Luciferase reporter gene assay for ERα in MCF-7 cells. It is filed as cell-based, human. The conditions noted are these: MCF-7 cells transfected with ERE-luc reporter, three concentrations, 24 h. As to the method: Cell transfection and luciferase activity assay were utilized to investigate the effects of the compounds on ER transcriptional activation. The human breast cancer cell line MCF-7 was obtained from the Beijing Key Laboratory of Drug Target Research and Drug Screening, Chinese Academy of Medical Sciences (Beijing, China). Dulbecco's Modified Eagle's Medium (DMEM) culture medium containing 10% fetal calf serum (FBS), 100 U/mL penicillin, and 100 μg/mL streptomycin was used as complete culture medium. The culture conditions were at 37°C, saturated humidity, and 5% CO2. The culture medium was changed every day and when the confluence of cells reached 90%, MCF-7 cells were digested with 0.25% trypsin containing 0.02% EDTA and then cultured under the same culture conditions. MCF-7 cells in logarithmic growth phase were resuspended in 3 mL complete culture medium and were seeded on 24-well plates with a density of 1 × 10^5/well overnight. After incubation for 24 h, cells were grown to approximately 60–80% confluence and then washed by culture medium without serum. MCF-7 cells were cotransfected with the reporter plasmid pGL2-ERE3-luc. Based on the manufacturer's instructions, transfection was mediated by lipofectamine 3000 (Invitrogen). After incubation for 12 h, transfection medium was eliminated, and MCF-7 cells were treated with three concentrations of compounds for 24 h. Then, MCF-7 cells were washed with phosphate-buffered saline (PBS) and cell lysis was collected after oscillation with a low speed. Finally, the luciferase activity was determined by dual-luciferase reporter assay system (Promega) according to the product manual.

[3] abbreviates: 75 nM ERα, 4.5 nM fluormone, 2 h, room temperature.

For the molecule `C[C@@H]1O[C@@H](O[C@H]2[C@H](Oc3cc(O)c4c(c3)O[C@H](c3ccc(O)cc3)CC4=O)O[C@H](CO)[C@@H](O)[C@@H]2O)[C@H](O)[C@H](O)[C@H]1O` [naringin], in assay [1] (values in μM), the IC50 is over 10 µM. As to `O=C(OC1Cc2c(O)cc(O)cc2OC1c1cc(O)c(O)c(O)c1)c1cc(O)c(O)c(O)c1` (single isomer, unassigned; (-)) [EGCG, (−)-epigallocatechin-3-gallate], in assay [1] (setting [3]), the IC50 turned out to be 0.066 ± 0.0116 µM. As to `O=C1C[C@@H](c2ccc(O)cc2)Oc2cc(O)cc(O)c21` [Naringenin], the IC50 in assay [1] (setting [3]) was determined as 0.968 ± 0.0709 µM. Further, the “Antiestrogenic effects (ERα transactivation, luciferase activity)” value (“Antiestrogenic effects” for short) in assay [2] is listed as “weak antiestrogenic effects”. As to `O=c1c(-c2ccc(O)cc2)coc2cc(O)cc(O)c12` [Genistein], the “Antiestrogenic effects” value in assay [2] was “decrease the expression of the ERα remarkably at a dose-dependent manner”. On the same count and under the same terms, for `C[C@H]1[C@H](C)CC[C@]2(C(=O)O)CC[C@]3(C)C(=CC[C@@H]4[C@@]5(C)CC[C@H](O)C(C)(C)[C@@H]5CC[C@]43C)[C@H]12` [Ursolic acid] the value was “antiestrogenic effects only at high dose”. Molecule `COc1ccc(-c2cc(=O)c3c(O)cc(O[C@@H]4O[C@H](CO[C@@H]5O[C@@H](C)[C@H](O)[C@@H](O)[C@H]5O)[C@@H](O)[C@H](O)[C@H]4O)cc3o2)cc1O` [diosmin] had an IC50 in assay [1] (values in μM) of over 10 µM.

The molecule `O=C(CCc1ccc(O)cc1)c1c(O)cc(O)cc1O` [Phloretin] yielded an IC50 in assay [1] (setting [3]) of 0.0745 ± 0.0242 µM. Further, the “Antiestrogenic effects” value in assay [2] was “regulated the expression of ERα in MCF-7 cells in a dose-dependent way”.

`COc1cc(C2Oc3cc([C@H]4Oc5cc(O)cc(O)c5C(=O)[C@@H]4O)ccc3OC2CO)ccc1O` (stereo partly shown) [silibinin] yielded an IC50 in assay [1] (values in μM) of over 10 µM.

As to `O=c1oc2c(O)c(O)cc3c(=O)oc4c(O)c(O)cc1c4c23` [Ellagic acid], the IC50 in assay [1] (setting [3]) was found to be 0.0626 ± 0.00934 µM. For the same molecule, in assay [2], the “Antiestrogenic effects” value was “decrease the expression of ERα at high and medium concentrations”. For the molecule `O=c1c(-c2ccc(O)cc2)coc2cc(O)ccc12` [Daidzein], the “Antiestrogenic effects” value in assay [2] is reported as “antagonist activity was lower than that of genistein”.
